The values that follow come from patent US20120177681A1, “Formulation of immunopotentiators” (priority 2010, published 2012).

Data set [1] is described as follows: Model of in vivo desorption from Al—H. The class given is in vitro ADME. To be noted: 37° C.
Data set [2] in a line: Desorption from Al—H by phosphate / buffer anions. The class given is physicochemical. The conditions noted are these: KH2PO4 0.5M final, pH 9, overnight at 37° C.
Data set [3] is described as follows: Solubility in histidine buffer at pH 6.8. Format: physicochemical.
A short description of data set [4]: Adsorption to aluminium hydroxide (Al—H), HPLC of supernatant. The class given is physicochemical. To be noted: parent compound, in words.
A short description of data set [5]: Confocal microscopy / flow cytometry of association with Al—H. The conditions noted are these: in the presence of Al—H. The class given is physicochemical.

`Cc1ccc2c(c1)nc(N)c1ncc(CCc3ccc(OCCCP(=O)(O)O)cc3C)cc12` [Compound 13]: the “proportion desorbed after 5 hours” value in data set [1] (His buff) is 2%; in data set [1] (Plasma/His buff) it was 9%; in data set [1] (SIF (simulated interstitial fluid)), 4%. The “compound in supernatant after KH2PO4 treatment (displacement / desorption)” value in data set [2] is recorded as “Increased quantities”. In addition, the “solubility in histidine buffer” value in data set [3] is “poorly soluble”.
As for `Cc1ccc(CCc2cnc3c(N)nc4cc(C)ccc4c3c2)c(C)c1` [compound O], in data set [4], the “adsorption to the Al—H adjuvant” value was “fails to adsorb”. For the same compound, the “co-localisation with Al—H (flow cytometry)” value in data set [5] was “separate population”.
